{"source": "patent US20060275321A1", "about": "“Polypeptide antagonists of HIV-1 Tat protein” (Phoenix Pharmaceuticals, Inc., priority 2005, published 2006)", "system": "dissociate cultured cortical neurons", "assay": "Mobilization of intracellular Ca2+ in dissociate cultured cortical neurons (Fura-2 AM fluorescence)", "type": "cell-based, rat", "details": "dissociate and cultured cortical neurons of newborn Sprague-Dawley rats, value ± spread", "from_the_text": "Neurons can be isolated from cerebral cortex according to the protocols for postnatal dissociated nuerons as disclosed for example by Huettner, J. E. and Baughman, R. W., Primary Culture of Identified Neurons From the Visual Cortex of Postnatal Rats, Journal of Neurosciences 6; 3044-3060 (1986); Brewer, G. J., Isolation and Culture of Adult Rat Hippocampal Neurons, Journal of Neuroscience Methods, 71:143-155 (1997); and Brailoiu et al., NAADP Potentiates Neurite Outgrowth, Journal of Biological Chemistry (in press), each hereby incorporated by reference. Newborn Sprague-Dawley rates (about 1 day to about 4 days old) were killed by cervical dislocation. Cerebral cortex was removed and quickly immersed in ice-cold phosphate buffer solution. After removal of meninges, tissue was minced into about 1-millimeter blocks, incubated for about 45 minutes at 37° C. in Hanks balanced salt solution without Ca^2+ and Mg^2+ (Invitrogen, 1600 Faraday Avenue, Carlsbad, Calif. 92008) and supplemented with about 200 ug/mL penicillin, 0.1% EDTA and papain 0.15 mg/mL (Sigma-Aldrich, St. Louis, Mo.). In accordance with the procedure disclosed by Brewer, the tissue can be further dissociated by gentle mechanical trituration. […]", "note": "Bridges are numbered along the chain shown (N, C = ends). Where no end group is shown, it is not given here. The star is where a group is joined. Acm = CC(=O)NC*", "data": [{"substance": "30-86 Cys30Acm, Cys34Acm (Cys31-Cys37): HIV-1 Tat residues 30-86, Cys-Acm at 30 and 34, disulfide bridge Cys31-Cys37 (C(Acm)CFHC(Acm)QVCFITKALGISYGRKKRRQRRRAHQNSQTHQASLSKQPTSQPRGDPTGPKE; disulfide 2-8)", "values": [{"measurement": "[Ca^2+] response", "result": "No Response"}]}]}
